According to patent publication US20100056524A1, “Compound” (priority 2008, published 2010):
Where a name gives a salt, the structure may show the parent alone. Read-outs that look alike come from different tables or passages of the source.

Biological target: T1, TBK1 (Homo sapiens, UniProt Q9UHD2)
T1 construct: All protein kinases were of human origin and encoded full length proteins, unless indicated otherwise; His6; made in house; host or cells: insect Sf21 cells
T1 sequence (Q9UHD2 1-729): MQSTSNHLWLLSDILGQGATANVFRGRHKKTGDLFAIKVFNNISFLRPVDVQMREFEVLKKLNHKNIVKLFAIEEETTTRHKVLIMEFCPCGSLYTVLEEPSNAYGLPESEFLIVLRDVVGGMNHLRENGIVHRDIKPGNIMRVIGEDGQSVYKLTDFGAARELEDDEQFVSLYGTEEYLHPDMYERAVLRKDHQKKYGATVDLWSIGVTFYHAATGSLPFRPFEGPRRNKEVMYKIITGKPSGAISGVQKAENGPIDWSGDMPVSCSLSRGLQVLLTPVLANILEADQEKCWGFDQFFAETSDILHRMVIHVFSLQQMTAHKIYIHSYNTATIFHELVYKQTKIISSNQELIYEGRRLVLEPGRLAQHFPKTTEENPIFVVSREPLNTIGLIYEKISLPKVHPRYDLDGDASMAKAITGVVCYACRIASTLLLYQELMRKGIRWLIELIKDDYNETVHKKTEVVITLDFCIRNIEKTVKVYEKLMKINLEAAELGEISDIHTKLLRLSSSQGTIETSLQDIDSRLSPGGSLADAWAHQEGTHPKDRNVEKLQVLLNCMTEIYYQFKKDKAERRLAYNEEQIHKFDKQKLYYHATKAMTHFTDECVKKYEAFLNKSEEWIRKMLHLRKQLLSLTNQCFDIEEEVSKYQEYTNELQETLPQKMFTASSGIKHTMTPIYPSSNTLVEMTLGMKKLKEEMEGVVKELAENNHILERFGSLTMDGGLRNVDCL
Test: TBK1 protein kinase assay ([γ-33P]ATP, P81 filterplates)
Type: biochemical
Conditions: 50 μM ATP
Method in brief: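 Human TBK1 assayed for 30 min with peptide substrate (300 μM), 50 μM [γ-33P]ATP and 10 mM magnesium acetate in 50 mM Tris/HCl pH 7.5, 0.1 mM EGTA, 0.1% 2-mercaptoethanol. Stopped with orthophosphoric acid and counted on P81 filters. IC50 from 10 compound concentrations.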

[1] = read-out: Potency (TBK1 IC50 potency score)

SMILES | IC50 [1] | IC50 (Table 5, read-out: TBK1 IC50)
CN1CCC(Oc2ccc(Nc3ncc(C4CC4)c(NCCCNC(=O)C4CCC4)n3)cn2)CC1 [Example 195, Cyclobutanecarboxylic acid (3-{5-cyclopropyl-2-[6-(1-methyl-piperidin-4-yloxy)-pyridin-3-ylamino]-pyrimidin-4-ylamino}-propyl)-amide] | < 100 nM | –
O=C(NCCCNc1nc(Nc2cccc(O)c2)ncc1C1CC1)c1cccs1 [Example 29, Thiophene-2-carboxylic acid {3-[5-cyclopropyl-2-(3-hydroxy-phenylamino)-pyrimidin-4-ylamino]-propyl}-amide Trifluoroacetic acid salt] | 1000 to 10000 nM | –
O=C(NCCCNc1nc(Nc2ccc(CCO)cc2)ncc1C1CC1)C1CCC1 [Example 177, Cyclobutanecarboxylic acid (3-{5-cyclopropyl-2-[4-(2-hydroxy-ethyl)-phenylamino]-pyrimidin-4-ylamino}-propyl)-amide] | < 100 nM | –
O=C(NCCCNc1nc(Nc2ccc(NCC3CCOCC3)nc2)ncc1C1CC1)C1CCC1 [Example 187] | < 100 nM | –
Cc1ccccc1Nc1ncc(C2CC2)c(NCCCNC(=O)c2cccs2)n1 [Example 59, Thiophene-2-carboxylic acid [3-(5-cyclopropyl-2-o-tolylamino-pyrimidin-4-ylamino)-propyl]-amide] | 1000 to 10000 nM | –
CC(C)(C)N1CCC(n2cc(Nc3ncc(C4CC4)c(NCCCNC(=O)C4CCC4)n3)cn2)CC1 [Example 205, Cyclobutanecarboxylic acid (3-{2-[1-(1-tert-butyl-piperidin-4-yl)-1H-pyrazol-4-ylamino]-5-cyclopropyl-pyrimidin-4-ylamino}-propyl)-amide] | < 100 nM | –
O=C(NCCCNc1nc(Nc2ccc3cn[nH]c3c2)ncc1C1CC1)C1CCC1 [Example 129, Cyclobutanecarboxylic acid {3-[5-cyclopropyl-2-(1H-indazol-6-ylamino)-pyrimidin-4-ylamino]-propyl}-amide. Hydrochloride] | < 100 nM | –
O=C(NCCCNc1nc(Nc2ccc3cn(CC4CC4)nc3c2)ncc1C1CC1)C1CCC1 [Example 194, Cyclobutanecarboxylic acid {3-[5-cyclopropyl-2-(2-cyclopropylmethyl-2H-indazol-6-ylamino)-pyrimidin-4-ylamino]-propyl}-amide] | < 100 nM | –
CN1CCC(NC(=O)c2cccc(Nc3ncc(C4CC4)c(NCCCNC(=O)C4CCC4)n3)c2)CC1 [Example 82, 3-{4-[3-(Cyclobutanecarbonyl-amino)-propylamino]-5-cyclopropyl-pyrimidin-2-ylamino}-N-(1-methyl-piperidin-4-yl)-benzamide] | 100 to 1000 nM | –
Cc1ccc(C(=O)NCCCNc2nc(Nc3cccc(F)c3)ncc2C2CC2)s1 [Example 12, 5-Methyl-thiophene-2-carboxylic acid {3-[5-cyclopropyl-2-(3-fluoro-phenylamino)-pyrimidin-4-ylamino]-propyl}-amide] | 100 to 1000 nM | –
O=C(NCCCNc1nc(Nc2ccc(N3CCCCC3)nc2)ncc1C1CC1)C1CCC1 [Example 150, Cyclobutanecarboxylic acid {3-[5-cyclopropyl-2-(3,4,5,6-tetrahydro-2H-[1,2′]bipyridinyl-5′-ylamino)-pyrimidin-4-ylamino]-propyl}-amide] | < 100 nM | –
CC(=O)Nc1cccc(Nc2ncc(C3CC3)c(NCCCNC(=O)C3CCC3)n2)c1 [Example 68, Cyclobutanecarboxylic acid {3-[2-(3-acetylamino-phenylamino)-5-cyclopropyl-pyrimidin-4-ylamino]-propyl}-amide] | < 100 nM | –
O=C(NCCCNc1nc(Nc2cccc(Br)c2)ncc1C1CC1)C1CCC1 [Example 141, Cyclobutanecarboxylic acid {3-[2-(3-bromo-phenylamino)-5-cyclopropyl-pyrimidin-4-ylamino]-propyl}-amide] | < 100 nM | –
O=C(NCCCNc1nc(Nc2ccccc2F)ncc1C1CC1)c1cccs1 [Example 52, Thiophene-2-carboxylic acid {3-[5-cyclopropyl-2-(2-fluoro-phenylamino)-pyrimidin-4-ylamino]-propyl}-amide] | 100 to 1000 nM | –
CC(=O)Nc1cccc(Nc2ncc(C3CC3)c(NCCCNC(=O)c3cccs3)n2)c1 [Example 51, Thiophene-2-carboxylic acid {3-[2-(3-acetylamino-phenylamino)-5-cyclopropyl-pyrimidin-4-ylamino]-propyl}-amide] | < 100 nM | –
CC(C)c1cnc(Nc2cccc(F)c2)nc1NCCCNC(=O)C1CCC1 [Compound B, cyclobutanecarboxylic acid {3-[2-(3-fluoro-phenylamino)-5-isopropyl-pyrimidin-4-ylamino]-propyl}-amide, reference compound] | – | > 1000 nM
Cn1ccc(-c2cccc(Nc3ncc(C4CC4)c(NCCCNC(=O)C4CCC4)n3)c2)n1 [Example 84, Cyclobutanecarboxylic acid (3-{5-cyclopropyl-2-[3-(1-methyl-1H-pyrazol-3-yl)-phenylamino]-pyrimidin-4-ylamino}-propyl)-amide] | < 100 nM | –
CN1CCN(CCOc2ccc(Nc3ncc(C4CC4)c(NCCCNC(=O)C4CCC4)n3)cn2)CC1 [Example 196, Cyclobutanecarboxylic acid [3-(5-cyclopropyl-2-{6-[2-(4-methyl-piperazin-1-yl)-ethoxy]-pyridin-3-ylamino}-pyrimidin-4-ylamino)-propyl]-amide] | < 100 nM | –
CN1CCC(CNC(=O)c2cccc(Nc3ncc(C4CC4)c(NCCCNC(=O)C4CCC4)n3)c2)CC1 [Example 78, 3-{4-[3-(Cyclobutanecarbonyl-amino)-propylamino]-5-cyclopropyl-pyrimidin-2-ylamino}-N-(1-methyl-piperidin-4-ylmethyl)-benzamide] | < 100 nM | –
CC(C)N1CCC(n2cc(Nc3ncc(C4CC4)c(NCCCNC(=O)C4CCC4)n3)cn2)CC1 [Example 203, Cyclobutanecarboxylic acid (3-{5-cyclopropyl-2-[1-(1-isopropyl-piperidin-4-yl)-1H-pyrazol-4-ylamino]-pyrimidin-4-ylamino}-propyl)-amide] | < 100 nM | –
CC(=O)Nc1cccc(Nc2ncc(C3CC3)c(NCCCNC(=O)C3CCCC3)n2)c1 [Example 67, Cyclopentanecarboxylic acid {3-[2-(3-acetylamino-phenylamino)-5-cyclopropyl-pyrimidin-4-ylamino]-propyl}-amide] | < 100 nM | –
O=C(NCCCNc1nc(Nc2ccc3ncccc3c2)ncc1C1CC1)C1CCC1 [Example 191, Cyclobutanecarboxylic acid {3-[5-cyclopropyl-2-(quinolin-6-ylamino)-pyrimidin-4-ylamino]-propyl}-amide] | < 100 nM | –
O=C(NCCCNc1nc(Nc2ccc(C3CC3)nc2)ncc1C1CC1)C1CCC1 [Example 208, Cyclobutanecarboxylic acid {3-[5-cyclopropyl-2-(6-cyclopropyl-pyridin-3-ylamino)-pyrimidin-4-ylamino]-propyl}-amide] | < 100 nM | –
O=C(NCCCNc1nc(Nc2cccc(N3CCOCC3)c2)ncc1C1CC1)C1CCC1 [Example 41, Cyclobutanecarboxylic acid {3-[5-cyclopropyl-2-(3-morpholin-4-yl-phenylamino)-pyrimidin-4-ylamino]-propyl}-amide] | < 100 nM | –
O=C(NCCCNc1nc(Nc2ccc3nccn3c2)ncc1C1CC1)C1CCC1 [Example 186, Cyclobutanecarboxylic acid {3-[5-cyclopropyl-2-(imidazo[1,2-a]pyridin-6-ylamino)-pyrimidin-4-ylamino]-propyl}-amide] | < 100 nM | –
O=C(NCCCNc1nc(Nc2ccc3nn(CC4CC4)cc3c2)ncc1C1CC1)C1CCC1 [Example 213, Cyclobutanecarboxylicacid{3-[5-cyclopropyl-2-(2-cyclopropylmethyl-2H-indazol-5-ylamino)-pyrimidin-4-ylamino]-propyl}-amide] | < 100 nM | –
CN(C)C1CCN(C(=O)c2cccc(Nc3ncc(C4CC4)c(NCCCNC(=O)C4CCC4)n3)c2)CC1 [Example 81, Cyclobutanecarboxylic acid (3-{5-cyclopropyl-2-[3-(4-dimethylamino-piperidine-1-carbonyl)-phenylamino]-pyrimidin-4-ylamino}-propyl)-amide] | < 100 nM | –
O=C(NCCCNc1nc(Nc2cccc(F)c2)ncc1C1CC1)c1ccc(Cl)s1 [Example 21, 5-Chloro-thiophene-2-carboxylic acid {3-[5-cyclopropyl-2-(3-fluoro-phenylamino)-pyrimidin-4-ylamino]-propyl}-amide] | 100 to 1000 nM | –
O=C(NCCCNc1nc(Nc2cccc(CN3CCC(F)(F)CC3)c2)ncc1C1CC1)C1CCC1 [Example 135, Cyclobutanecarboxylic acid (3-{5-cyclopropyl-2-[3-(4,4-difluoro-piperidin-1-ylmethyl)-phenylamino]-pyrimidin-4-ylamino}-propyl)-amide] | < 100 nM | –
